Data as given in patent publication US11578061B2, “Inhibitors of LRRK2 kinase” (Halia Therapeutics, Inc., priority 2021, dated 2023).

Biological target: recombinant human LRRK2 (catalytic domain only [amino acids 970-2527], GST-tagged) (Homo sapiens (Human), UniProt Q5S007)
Test: LRRK2 Enzymatic Assay
Type: biochemical
Conditions: LRRKtide substrate, [32P]-ATP
Procedure: LRRKtide substrate (peptide sequence RLGRDKYKTLRQIRQ, derived from human ezrin [amino acids 561-573], moesin [amino acids 539-553] and radixin [amino acids 558-570], obtained from SignalChem, catalogue #L10-58, reconstituted in 20 mM Tris-HCl at pH 7.5 to a final concentration of 1 mg/mL, assay concentration 20 μM) and recombinant human LRRK2 (catalytic domain only [amino acids 970-2527], GST-tagged, expressed in insect cells, obtained from ThermoFisher Scientific, catalogue #PV4874, 0.35 mg/mL, assay concentration 30 nM) were mixed in assay buffer (20 mM Hepes pH 7.5, 10 mM MgCl2, 1 mM EGTA, 0.02% Brij35, 0.02 mg/ml BSA, 0.1 mM Na3VO4, 2 mM DTT, 1% DMSO). Compounds of interest (in DMSO, serial 3-fold dilution from 10 μM to 0.5 nM) or control (1% DMSO) were dispensed into the kinase reaction mixture by Acoustic technology (Echo550; nanoliter range). After incubation at room temperature for 20 minutes, the kinase reaction was initiated by addition of [^32P]-ATP (Specific activity 10 μCi/μl) and the mixture was incubated at room temperature for 2 hours. The reaction was then stopped by spotting the reaction mixture on strips of phosphocellulose P81 paper. Following washing, the radioactivity of the P81 paper was measured and kinase activity data were expressed as the percent remaining kinase activity in test samples compared to vehicle (dimethyl sulfoxide) reactions. IC50 values and curve fits were obtained using Prism (GraphPad Software).

recombinant human LRRK2 (catalytic domain only [amino acids 970-2527], GST-tagged), sequence (Q5S007 970-2527): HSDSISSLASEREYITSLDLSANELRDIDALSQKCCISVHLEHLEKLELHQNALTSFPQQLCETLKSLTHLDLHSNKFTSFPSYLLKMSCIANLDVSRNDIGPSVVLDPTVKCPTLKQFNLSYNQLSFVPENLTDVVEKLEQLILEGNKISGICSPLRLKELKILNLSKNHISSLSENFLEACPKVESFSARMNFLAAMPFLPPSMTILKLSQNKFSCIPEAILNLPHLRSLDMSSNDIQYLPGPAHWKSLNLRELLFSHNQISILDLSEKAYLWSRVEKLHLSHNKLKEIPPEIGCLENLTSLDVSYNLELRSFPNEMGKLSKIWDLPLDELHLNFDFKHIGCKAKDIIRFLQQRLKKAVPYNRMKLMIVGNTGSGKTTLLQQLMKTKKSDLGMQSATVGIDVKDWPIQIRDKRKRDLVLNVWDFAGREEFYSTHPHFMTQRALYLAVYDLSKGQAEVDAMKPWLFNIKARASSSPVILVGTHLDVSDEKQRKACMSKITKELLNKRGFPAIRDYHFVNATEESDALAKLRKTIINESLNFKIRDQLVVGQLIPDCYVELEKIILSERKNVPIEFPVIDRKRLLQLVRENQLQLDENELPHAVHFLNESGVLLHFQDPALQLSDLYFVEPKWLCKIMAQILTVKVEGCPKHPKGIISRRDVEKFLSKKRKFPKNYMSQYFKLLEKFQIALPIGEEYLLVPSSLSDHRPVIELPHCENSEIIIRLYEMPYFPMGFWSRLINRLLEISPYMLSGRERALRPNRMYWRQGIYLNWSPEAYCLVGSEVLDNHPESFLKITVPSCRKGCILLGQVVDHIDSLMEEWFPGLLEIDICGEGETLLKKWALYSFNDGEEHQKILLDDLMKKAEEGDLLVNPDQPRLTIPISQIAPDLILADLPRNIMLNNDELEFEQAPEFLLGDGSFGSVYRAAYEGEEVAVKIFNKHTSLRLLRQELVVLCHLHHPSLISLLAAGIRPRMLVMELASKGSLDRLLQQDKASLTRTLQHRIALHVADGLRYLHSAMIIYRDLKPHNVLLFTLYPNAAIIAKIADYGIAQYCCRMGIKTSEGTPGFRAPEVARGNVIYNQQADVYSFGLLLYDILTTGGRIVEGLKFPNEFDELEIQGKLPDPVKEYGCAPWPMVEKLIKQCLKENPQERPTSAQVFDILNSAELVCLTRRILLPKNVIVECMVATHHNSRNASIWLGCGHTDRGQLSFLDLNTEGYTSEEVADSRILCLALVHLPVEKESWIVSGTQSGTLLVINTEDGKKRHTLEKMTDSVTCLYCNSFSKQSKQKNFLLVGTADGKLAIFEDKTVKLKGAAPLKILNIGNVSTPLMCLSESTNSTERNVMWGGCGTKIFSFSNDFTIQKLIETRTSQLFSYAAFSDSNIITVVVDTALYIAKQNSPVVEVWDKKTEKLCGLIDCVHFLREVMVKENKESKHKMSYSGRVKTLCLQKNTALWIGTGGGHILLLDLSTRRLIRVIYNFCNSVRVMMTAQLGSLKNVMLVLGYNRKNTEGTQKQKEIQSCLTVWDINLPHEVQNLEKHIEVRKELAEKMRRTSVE

Row | IC50 | Compound
1 | < 50 nM | N#CC1CCC(COc2nc(Nc3ccc(N4CCOCC4)cc3)ncc2F)CC1 (racemic) [Example 272, 4-(((5-fluoro-2-((4-morpholinophenyl)amino)pyrimidin-4-yl)oxy)methyl)cyclohexane-1-carbonitrile]
2 | < 50 nM | C[C@@H]1CN(c2ccc(Nc3ncc(F)c(OCC4CCC(C#N)CC4)n3)cc2)C[C@H](C)O1 (mixture of isomers) [Example 273, 4-(((2-((4-((2S,6R)-2,6-dimethylmorpholino)phenyl)amino)-5-fluoropyrimidin-4-yl)oxy)methyl)cyclohexane-1-carbonitrile]
3 | < 50 nM | Cc1nn(C(C)(C)C#N)cc1Nc1ncc(F)c(OCC2CCC(C#N)CC2)n1 (racemic) [Example 274, 4-(((2-((1-(2-cyanopropan-2-yl)-3-methyl-1H-pyrazol-4-yl)amino)-5-fluoropyrimidin-4-yl)oxy)methyl)cyclohexane-1-carbonitrile]
4 | 50 to 200 nM | CC(C)OC1CCC(COc2nc(Nc3ccc(N4CCOCC4)cc3)ncc2F)CC1 (racemic) [Example 278, 5-fluoro-4-((4-isopropoxycyclohexyl)methoxy)-N-(4-morpholinophenyl)pyrimidin-2-amine]
5 | 200 to 400 nM | CC(C)OC1CCC(COc2nc(Nc3ccc(N4C[C@@H](C)O[C@@H](C)C4)cc3)ncc2F)CC1 (mixture of isomers) [Example 279, N-(4-((2S,6R)-2,6-dimethylmorpholino)phenyl)-5-fluoro-4-((4-isopropoxycyclohexyl)methoxy)pyrimidin-2-amine]
6 | 50 to 200 nM | Cc1nn(C(C)(C)C#N)cc1Nc1ncc(F)c(OCC2CCC(OC(C)C)CC2)n1 (racemic) [Example 280, 2-(4-((5-fluoro-4-((4-isopropoxycyclohexyl)methoxy)pyrimidin-2-yl)amino)-3-methyl-1H-pyrazol-1-yl)-2-methylpropanenitrile]
7 | 200 to 400 nM | Cc1nn(C(C)(C)C#N)cc1Nc1ncc(F)c(OCC2CCC(OC(F)(F)F)CC2)n1 (racemic) [Example 284, 2-(4-((5-fluoro-4-((4-(trifluoromethoxy)cyclohexyl)methoxy)pyrimidin-2-yl)amino)-3-methyl-1H-pyrazol-1-yl)-2-methylpropanenitrile]
8 | 50 to 200 nM | C[C@@H]1CN(c2ccc(Nc3ncc(F)c(OCC4CCNCC4F)n3)cc2)C[C@H](C)O1 (single isomer, unassigned) [Example 168]
9 | 50 to 200 nM | C[C@@H]1CN(c2ccc(Nc3ncc(F)c(OCC4CCNCC4F)n3)cc2)C[C@H](C)O1 (single isomer, unassigned) [Example 169]
10 | 50 to 200 nM | Cc1nn(C(C)(C)C#N)cc1Nc1ncc(F)c(OCC2CCNCC2F)n1 (single isomer, unassigned) [Example 170, 2-(4-((5-fluoro-4-((3-fluoropiperidin-4-yl)methoxy)pyrimidin-2-yl)amino)-3-methyl-1H-pyrazol-1-yl)-2-methylpropanenitrile]
11 | 200 to 400 nM | Cc1nn(C(C)(C)C#N)cc1Nc1ncc(F)c(OCC2CCNCC2F)n1 (single isomer, unassigned) [Example 171, 2-(4-((5-fluoro-4-((3-fluoropiperidin-4-yl)methoxy)pyrimidin-2-yl)amino)-3-methyl-1H-pyrazol-1-yl)-2-methylpropanenitrile]
12 | 50 to 200 nM | CC(=O)N1CCC(COc2nc(Nc3ccc(N4CCOCC4)cc3)ncc2F)C(F)C1 (single isomer, unassigned) [Example 172, 1-(3-fluoro-4-(((5-fluoro-2-((4-morpholinophenyl)amino)pyrimidin-4-yl)oxy)methyl)piper-idin-1-yl)ethan-1-one]
13 | < 50 nM | CC(=O)N1CCC(COc2nc(Nc3ccc(N4CCOCC4)cc3)ncc2F)C(F)C1 (single isomer, unassigned) [Example 173, 1-(3-fluoro-4-(((5-fluoro-2-((4-morpholinophenyl)amino)pyrimidin-4-yl)oxy)methyl)piper-idin-1-yl)ethan-1-one]
14 | 200 to 400 nM | CC(=O)N1CCC(COc2nc(Nc3ccc(N4C[C@@H](C)O[C@@H](C)C4)cc3)ncc2F)C(F)C1 (single isomer, unassigned) [Example 174]
15 | 200 to 400 nM | CC(=O)N1CCC(COc2nc(Nc3ccc(N4C[C@@H](C)O[C@@H](C)C4)cc3)ncc2F)C(F)C1 (single isomer, unassigned) [Example 175]
16 | 200 to 400 nM | CC(=O)N1CCC(COc2nc(Nc3cn(C(C)(C)C#N)nc3C)ncc2F)C(F)C1 (single isomer, unassigned) [Example 176, 2-(4-((4-((1-acetyl-3-fluoropiperidin-4-yl)methoxy)-5-fluoropyrimidin-2-yl)amino)-3-methyl-1H-pyrazol-1-yl)-2-methylpropanenitrile]

Row | IC50 | Compound
17 | > 400 nM | CC(=O)N1CCC(COc2nc(Nc3cn(C(C)(C)C#N)nc3C)ncc2F)C(F)C1 (single isomer, unassigned) [Example 177, 2-(4-((4-((1-acetyl-3-fluoropiperidin-4-yl)methoxy)-5-fluoropyrimidin-2-yl)amino)-3-methyl-1H-pyrazol-1-yl)-2-methylpropanenitrile]
18 | < 50 nM | Cc1nn(C(C)(C)C#N)cc1Nc1ncc(F)c(OCC2CCCC(O)CC2)n1 (single isomer, unassigned) [Example 263, 2-(4-((5-fluoro-4-((4-hydroxycycloheptyl)methoxy)pyrimidin-2-yl)amino)-3-methyl-1H-pyrazol-1-yl)-2-methylpropanenitrile]
19 | > 400 nM | Fc1cnc(Nc2ccc(N3CCOCC3)cc2)nc1OCC1CCC(OC(F)(F)F)CC1 (single isomer, unassigned) [Example 281, 5-fluoro-N-(4-morpholinophenyl)-4-((4-(trifluoromethoxy)cyclohexyl)methoxy)pyrimidin-2-amine]
20 | > 400 nM | Fc1cnc(Nc2ccc(N3CCOCC3)cc2)nc1OCC1CCC(OC(F)(F)F)CC1 (single isomer, unassigned) [Example 282, 5-fluoro-N-(4-morpholinophenyl)-4-((4-(trifluoromethoxy)cyclohexyl)methoxy)pyrimidin-2-amine]
21 | < 50 nM | Cc1nn(C(C)(C)C#N)cc1Nc1ncc(F)c(OCC2CC(C#N)C2)n1 (single isomer, unassigned) [Example 290, 3-(((2-((1-(2-cyanopropan-2-yl)-3-methyl-1H-pyrazol-4-yl)amino)-5-fluoropyrimidin-4-yl)oxy)methyl)cyclobutane-1-carbonitrile]
22 | < 50 nM | Cc1nn(C(C)(C)C#N)cc1Nc1ncc(F)c(OCC2CC(C#N)C2)n1 (single isomer, unassigned) [Example 291, 3-(((2-((1-(2-cyanopropan-2-yl)-3-methyl-1H-pyrazol-4-yl)amino)-5-fluoropyrimidin-4-yl)oxy)methyl)cyclobutane-1-carbonitrile]
23 | < 50 nM | N[C@H]1CC[C@@H](COc2ccnc(Nc3ccc(N4CCOCC4)cc3)n2)CC1 [Example 1, 4-(((1S,4S)-4-aminocyclohexyl)methoxy)-N-(4-morpholinophenyl) pyrimidin-2-amine]
24 | < 50 nM | N[C@H]1CC[C@H](COc2ccnc(Nc3ccc(N4CCOCC4)cc3)n2)CC1 [Example 2, 4-(((1R,4R)-4-aminocyclohexyl)methoxy)-N-(4-morpholinophenyl) pyrimidin-2-amine]
25 | 50 to 200 nM | Cn1ccc(Nc2nccc(OC[C@H]3CC[C@@H](N)CC3)n2)n1 [Example 3, 4-(((1S,4S)-4-aminocyclohexyl)methoxy)-N-(1-methyl-1H-pyrazol-3-yl) pyrimidin-2-amine]
26 | 50 to 200 nM | Cn1ccc(Nc2nccc(OC[C@H]3CC[C@H](N)CC3)n2)n1 [Example 4, 4-(((1R,4R)-4-aminocyclohexyl)methoxy)-N-(1-methyl-1H-pyrazol-3-yl)pyrimidin-2-amine]
27 | 50 to 200 nM | N[C@H]1CC[C@H](COc2ccnc(Nc3ccn(CC(F)F)n3)n2)CC1 [Example 5, 4-(((1R,4R)-4-aminocyclohexyl)methoxy)-N-(1-(2,2-difluoroethyl)-1H-pyrazol-3-yl) pyrimidin-2-amine]
28 | < 50 nM | N[C@H]1CC[C@H](COc2ccnc(Nc3cccc(N4CCOCC4)c3)n2)CC1 [Example 6, 4-(((1R,4R)-4-aminocyclohexyl)methoxy)-N-(3-morpholinophenyl) pyrimidin-2-amine]
29 | > 400 nM | N[C@H]1CC[C@H](COc2nc(Nc3ccc(N4CCOCC4)cc3)ncc2C(F)(F)F)CC1 [Example 7, 4-(((1R,4R)-4-aminocyclohexyl)methoxy)-N-(4-morpholinophenyl)-5-(trifluoromethyl) pyrimidin-2-amine]
30 | < 50 nM | COc1cnc(Nc2ccc(N3CCOCC3)cc2)nc1OC[C@H]1CC[C@H](N)CC1 [Example 8, 4-(((1R,4R)-4-aminocyclohexyl)methoxy)-5-methoxy-N-(4-morpholinophenyl) pyrimidin-2-amine]
31 | < 50 nM | N[C@H]1CC[C@H](COc2nc(Nc3ccc(N4CCOCC4)cc3)ncc2Cl)CC1 [Example 9, 4-(((1R,4R)-4-aminocyclohexyl)methoxy)-5-chloro-N-(4-morpholinophenyl) pyrimidin-2-amine]
32 | < 50 nM | N[C@H]1CC[C@H](COc2nc(Nc3ccc(N4CCOCC4)cc3)ncc2F)CC1 [Example 10, 4-(((1R,4R)-4-aminocyclohexyl)methoxy)-5-fluoro-N-(4-morpholinophenyl) pyrimidin-2-amine]
